Experimental data as given in patent publication US7585875B2, “Substituted pyrazolo[1,5-a]pyridine compounds and their methods of use” (Avigen, Inc., priority 2006, dated 2009).
Like-named read-outs stand apart in the source and are kept apart here.

Columns and labels:
[1] = test system: mechanical allodynia after chronic constriction injury (CCI) to the sciatic nerve; assay: Mechanical allodynia by response to von Frey fibers, rat chronic constriction injury (CCI) model; format: in vivo, male Sprague-Dawley rats; conditions: 2 hr post dosing
From the text: Chronic Constriction Injury: Heat and cold allodynia responses as well as mechanical allodynia sensations can be evaluated as described below in rats having a chronic constriction injury (CCI). A unilateral mononeuropathy is produced in rats using the chronic constriction injury model described in Bennett et al., Pain (1988) 33:87-107. CCI is produced in anesthetized rats as follows. The lateral aspect of each rat's hind limb is shaved and scrubbed with Nolvasan. Using aseptic techniques, an incision is made on the lateral aspect of the hind limb at the mid-thigh level. The biceps femoris is bluntly dissected to expose the sciatic nerve. On the right hind limb of each rat, four loosely tied ligatures (for example, Chromic gut 4.0; Ethicon, Johnson and Johnson, Somerville, N.J.) are made around the sciatic nerve approximately 1-2 mm apart. On the left side of each rat, an identical dissection is performed except that the sciatic nerve is not ligated (sham). The muscle is closed with a continuous suture pattern with, e.g., 4-0 Vicryl (Johnson and Johnson, Somerville, N.J.) and the overlying skin is closed with wound clips. The rats are ear-tagged for identification purposes and returned to animal housing.
To induce allodynia, male Sprague-Dawley rats underwent chronic constriction injury (CCI) to the sciatic nerve as described by Bennett and Xie, Pain 1988; 33(1):87-107. The plantar surface of the hind paws was stimulated with von Frey filaments (Stoelting) to induce a withdrawal response by blinded personnel. The bending force of fiber required to induce a 50% withdrawal response was calculated following CCI surgery (pre-dosing baseline). N=5-6 allodynic rats received a single intraperitoneal administration of test compound or vehicle. Two hours post-dosing, 50% paw withdrawal threshold was determined again by blinded testers using von Frey filaments. The change in 50% withdrawal threshold relative to pre-dosing baseline is reported in Table 2 for various substituted pyrazolo[1,5-a]pyridine compounds of the invention.

[2] = molecular target: phosphodiesterase (PDE) enzyme derived from bovine brain; assay: Inhibition of PDE (PDELight kit, cAMP substrate); format: biochemical; conditions: PDE from brain extract, cAMP as substrate
Description: In a 96-well plate, phosphodiesterase (PDE) enzyme (0.5-1 mU/well) derived from bovine brain (Sigma) was combined with 5 uM cAMP substrate (Sigma). Test compounds (0-200 uM) or vehicle (0.5% DMSO) were added to the enzyme/substrate and incubated for 1 hour. Using a PDELight® kit (Cambrex), the amount of AMP produced in the reaction from the hydrolysis of cAMP was quantified using PDELight AMP Detection Reagent which converts the AMP directly to ATP. The assay uses luciferase, which catalyses the formation of light from the newly formed ATP and luciferin. The luminescence was read on a Victor Light 1420 luminometer. IC50 calculations were plotted using a nonlinear regression curve fit.

[3] = test system: TNF-α production in LPS-stimulated human peripheral blood mononuclear cells; assay: Inhibition of LPS-stimulated TNF-α release from PBMCs; format: cell-based; conditions: PBMC
Description: (§1) IC50 values were determined for representative compounds of the invention based upon their ability to inhibit LPS-induced cytokine production in human peripheral blood mononuclear cells. Human PBMCs (peripheral blood mononuclear cells) were isolated over a Ficoll gradient from buffy coats obtained from the local Red Cross. 10^6 PBMC cells/well were seeded in 24-well tissue culture plates in RPMI 1640 medium supplemented with 10% human serum, hepes buffer and sodium pyruvate. The cells were treated with 0.1% DMSO (vehicle) or test compounds (1, 10, and 100 uM) 30 minutes prior to activation with LPS (lipopolysaccharide) (E. Coli) at 10 ng/mL. 6-10 hours post LPS stimulation the culture supernatants were collected and levels of cytokines TNF-α and IL-1β were quantified by ELISA (R&D Systems) and/or Luminex (Linco Diagnostics). IC50 calculations were plotted using a nonlinear regression curve fit for exemplary substituted pyrazolo[1,5-a]pyridine compounds of the invention; results are provided in Table 2.

[4] = test system: IL-1β production in LPS-stimulated human peripheral blood mononuclear cells; assay: Inhibition of LPS-stimulated IL-1β release from PBMCs; format: cell-based; conditions: PBMC, LPS-stimulated cytokine release from PBMCs
Description: as §1

[5] = LPS-stimulated cytokine release from PBMCs, read-out: TNF-α (IC50)
[6] = less than or equal to about 50 μM, PBMCs, read-out: IC50, LPS-induced cytokine production (cytokine not specified)

Row | Compound | melting point | Mechanical Allodynia ΔWT (change from pre-dosing 50% withdrawal threshold) ([1]; 10 mg/kg IP) | IC50 [2] | IC50 [3, 5] | IC50 [3, 6] | IC50 [4] | Mechanical Allodynia ΔWT (change from pre-dosing 50% withdrawal threshold) ([1]; 20 mg/kg IP) | Mechanical Allodynia ΔWT (change from pre-dosing 50% withdrawal threshold) ([1]; 25 mg/kg PO) | Mechanical Allodynia ΔWT (change from pre-dosing 50% withdrawal threshold) ([1]; 40 mg/kg IP)
1 | CCC(=O)c1c(C(C)C)nn2ccccc12 [Compound 1001, 1-(2-isopropylpyrazolo[1,5-a]pyridin-3-yl)propan-1-one] | 41 to 43 °C | 0 grams | 58 µM | 13 µM | ≤ 50 µM | > 100 µM |  |  | 
2 | CC(C)c1nn2ccccc2c1C(=O)c1ccc(Cl)cc1 [Compound 1007, (4-chlorophenyl)(2-isopropylpyrazolo[1,5-a]pyridin-3-yl)methanone] |  | 0.92 grams | > 200 µM | 13 µM | ≤ 50 µM | 29.7 µM |  |  | 
3 | COc1ccc(C(=O)c2c(C(C)C)nn3ccccc23)cc1 [Compound 1008, (2-isopropylpyrazolo[1,5-a]pyridin-3-yl)(4-methoxyphenyl)methanone] |  | 0.84 grams | 5.8 µM | 50 µM | ≤ 50 µM | > 100 µM |  |  | 
4 | CC(C)c1nn2ccccc2c1C(=O)CN [Compound 1009, 2-amino-1-(2-isopropylpyrazolo[1,5-a]pyridin-3-yl)ethanone] |  | 1.15 grams | > 200 µM | 25 µM | ≤ 50 µM | 99 µM |  |  | 
5 | CC(C)C(=NO)c1c(C(C)C)nn2ccccc12 [Compound 1012, 1-(2-isopropylpyrazolo[1,5-a]pyridin-3-yl)-2-methylpropan-1-one oxime] |  | 1.56 grams | 40 µM | > 100 µM |  | 99 µM |  |  | 
6 | CC(C)C(=O)c1c(-c2ccccc2)nn2ccccc12 [Compound 1015, 2-methyl-1-(2-phenylpyrazolo[1,5-a]pyridin-3-yl)propan-1-one] |  | 0.51 grams | 80 µM | > 100 µM |  | > 100 µM |  |  | 
7 | CC(C)C(=NO)c1c(-c2ccccc2)nn2ccccc12 [Compound 1016, 2-methyl-1-(2-phenylpyrazolo[1,5-a]pyridin-3-yl)propan-1-one oxime] |  | 0 grams | 75 µM | > 100 µM |  | > 100 µM |  |  | 
8 | CC(C)C(=O)c1c(-c2ccc(F)cc2)nn2ccccc12 [Compound 1018, 1-(2-(4-fluorophenyl)pyrazolo[1,5-a]pyridin-3-yl)-2-methylpropan-1-one] |  | 0 grams | > 200 µM | 32.7 µM | ≤ 50 µM | > 100 µM |  |  | 
9 | CC(C)C(=O)c1c(-c2ccc(F)cc2)nn2cc(C(F)(F)F)ccc12 [Compound 1027, 1-(2-(4-fluorophenyl)-6-(trifluoromethyl)pyrazolo[1,5-a]pyridin-3-yl)-2-methylpropan-1-one] | 129 to 130 °C | 0 grams | > 200 µM |  |  |  |  |  | 
10 | CC(C)c1nn2ccccc2c1C(=O)C1CC1 [Compound 1046, cyclopropyl(2-isopropylpyrazolo[1,5-a]pyridin-3-yl)methanone] | 72 °C | 0 grams | 33.3 µM |  |  |  |  |  | 
11 | O=C(c1c(C2CC2)nn2ccccc12)C1CC1 [Compound 1047, cyclopropyl(2-cyclopropylpyrazolo[1,5-a]pyridin-3-yl)methanone] | 102 to 104 °C | 0.68 grams | 15.4 µM |  |  |  |  |  | 
12 | CC(C)C(=O)c1c(C(C)C)nn2ccccc12 [compound 411, 3-isobutyryl-2-isopropylpyrazolo[1,5-a]pyridine, reference compound] |  | 2.31-3.53 grams | 10.3 µM | 5 µM |  | 17.9 µM |  |  | 
13 | CC(C)c1nn2ccccc2c1C(=O)C(C)(C)O [compound 1004, 2-hydroxy-1-(2-isopropylpyrazolo[1,5-a]pyridin-3-yl)-2-methylpropan-1-one] |  | 0.48 grams | 12.6 µM | 28.8 µM | ≤ 50 µM | > 100 µM |  |  | 
14 | CC(C)C(=O)c1c(C(C)C)nn2cc(O)ccc12 [compound 1006, 1-(6-hydroxy-2-isopropylpyrazolo[1,5-a]pyridin-3-yl)-2-methylpropan-1-one] |  | 0 grams | 29.6 µM | 1.3 µM | ≤ 50 µM | 14.7 µM |  |  | 
15 | CC(N)C(=O)c1c(C(C)C)nn2ccccc12 (stereo not drawn) [compound 1013, 2-amino-1-(2-isopropylpyrazolo[1,5-a]pyridin-3-yl)propan-1-one] |  | 10 mg/kg: 1.04 grams | > 200 µM | 13.6 µM | ≤ 50 µM | > 100 µM | 20 mg/kg: 1.33 grams | 25 mg/kg PO: 1.39 grams | 40 mg/kg: 3.16 grams
16 | CC(C)C(=NOC(N)=O)c1c(C(C)C)nn2ccccc12 [compound 1014, 1-(2-isopropylpyrazolo[1,5-a]pyridin-3-yl)-2-methylpropan-1-one O-carbamoyl oxime] |  | 10 mg/kg: 2.18 grams | 100 µM | 1.3 µM | ≤ 50 µM | 1 µM | 20 mg/kg: 3.73 grams |  | 
17 | CC(C)C(=NO)c1c(-c2ccc(F)cc2)nn2ccccc12 [compound 1019, 1-(2-(4-fluorophenyl)pyrazolo[1,5-a]pyridin-3-yl)-2-methylpropan-1-one oxime] |  | 1.4 grams | 40 µM | > 100 µM |  | > 100 µM |  |  | 
18 | CC(C)C(=O)c1c(C2CC2)nn2ccccc12 [compound 1050, 1-(2-cyclopropylpyrazolo[1,5-a]pyridin-3-yl)-2-methylpropan-1-one] | 108 to 109 °C | 0 grams |  |  |  |  |  |  | 
19 | CC(CN1CCCCC1)C(=O)c1c(C(C)C)nn2ccccc12.Cl (stereo not drawn) [compound 1063, 1-(2-isopropylpyrazolo[1,5-a]pyridin-3-yl)-2-methyl-3-(piperidin-1-yl)propan-1-one hydrochloride] | 166 to 167 °C | 0 grams |  |  |  |  |  |  | 
20 | CC(CN)C(=O)c1c(C(C)C)nn2ccccc12.Cl (stereo not drawn) [compound 1065, 3-amino-1-(2-isopropylpyrazolo[1,5-a]pyridin-3-yl)-2-methylpropan-1-one hydrochloride] | 110 to 115 °C | 0.91 grams |  |  |  |  |  |  | 
21 | CC(CNCc1ccccc1)C(=O)c1c(C(C)C)nn2ccccc12.Cl (stereo not drawn) [compound 1066, 3-(benzylamino)-1-(2-isopropylpyrazolo[1,5-a]pyridin-3-yl)-2-methylpropan-1-one hydrochloride] | 171 to 175 °C | 0.1 grams |  |  |  |  |  |  | 
